Test results published in patent publication US4409210A, “Antibiotic compound” (priority 1982, dated 1983).
Converted amounts (≈) assume the structure as drawn.

Assays:
Assay type in all cases: cell-based
[1] = tested on: Clostridium acidiurici A9560; test: MIC, serial two-fold dilution method (anaerobic); conditions: Clostridium acidiurici A9560, GAM agar medium, inoculum 10^7-10^8
[2] = tested on: Bacteroides fragilis A20928-1; test: MIC, serial two-fold dilution method (anaerobic); conditions: Bacteroides fragilis A20928-1, GAM agar medium, inoculum 10^7-10^8
[3] = tested on: Veillonella parvula A20010; test: MIC, serial two-fold dilution method (anaerobic); conditions: Veillonella parvula A20010, GAM agar medium, inoculum 10^7-10^8
[4] = tested on: Clostridium difficile A21675; test: MIC, serial two-fold dilution method (anaerobic); conditions: Clostridium difficile A21675, GAM agar medium, inoculum 10^7-10^8
Experimental: (§1) The minimum inhibitory concentration (MIC) of Bu-2517 was determined for a variety of aerobic and anaerobic bacteria by the serial two-fold dilution method using a multi-inoculating apparatus. Mueller-Hinton agar was generally used for aerobic bacteria, GC medium (Eiken) for fastidious aerobic organisms such as streptococci, Neisseria and Haemophilus species, and GAM agar medium (Nissui) for anaerobic bacteria. The inoculum size was adjusted to 10^6 CFU/ml for streptococci, Neisseria and Haemophilus species, 10^4 for other aerobic bacteria and 10^7 -10^8 for all anaerobic organisms. Amphomycin, ampicillin, chloramphenicol, clindamycin, erthromycin, kanamycin and vancomycin were used as reference antibiotics.

[5] = tested on: Clostridium chauvoei A9561; test: MIC, serial two-fold dilution method (anaerobic); conditions: Clostridium chauvoei A9561, GAM agar medium, inoculum 10^7-10^8
Experimental: as §1

[6] = tested on: Clostridium septicum A21869; test: MIC, serial two-fold dilution method (anaerobic); conditions: Clostridium septicum A21869, GAM agar medium, inoculum 10^7-10^8
Experimental: as §1

[7] = tested on: Clostridium difficile A21972; test: MIC, serial two-fold dilution method (anaerobic); conditions: Clostridium difficile A21972, GAM agar medium, inoculum 10^7-10^8
Experimental: as §1

[8] = tested on: Bacteroides fragilis A20926; test: MIC, serial two-fold dilution method (anaerobic); conditions: Bacteroides fragilis A20926, GAM agar medium, inoculum 10^7-10^8
[9] = tested on: Fusobacterium varium ATCC 8501; test: MIC, serial two-fold dilution method (anaerobic); conditions: Fusobacterium varium ATCC 8501, GAM agar medium, inoculum 10^7-10^8
[10] = tested on: Staphylococcus aureus A20394; test: MIC, serial two-fold dilution method (aerobic); conditions: Staphylococcus aureus A20394, Mueller-Hinton agar, inoculum 10^4
[11] = tested on: Bacteroides fragilis A22695; test: MIC, serial two-fold dilution method (anaerobic); conditions: Bacteroides fragilis A22695, GAM agar medium, inoculum 10^7-10^8
[12] = tested on: Bacteroides fragilis A20929; test: MIC, serial two-fold dilution method (anaerobic); conditions: Bacteroides fragilis A20929, GAM agar medium, inoculum 10^7-10^8
[13] = tested on: Clostridium perfringens A22787; test: microbe, parasite or virus in culture
[14] = tested on: Propionibacterium acnes A22650; test: MIC, serial two-fold dilution method (anaerobic); conditions: Propionibacterium acnes A22650, GAM agar medium, inoculum 10^7-10^8
[15] = tested on: Clostridium cylindrosporum A9562; test: MIC, serial two-fold dilution method (anaerobic); conditions: Clostridium cylindrosporum A9562, GAM agar medium, inoculum 10^7-10^8
[16] = tested on: Proteus mirabilis A9554; test: MIC, serial two-fold dilution method (aerobic); conditions: Proteus mirabilis A9554, Mueller-Hinton agar, inoculum 10^4
[17] = tested on: Peptostreptococcus intermedius A21881; test: MIC, serial two-fold dilution method (anaerobic); conditions: Peptostreptococcus intermedius A21881, GAM agar medium, inoculum 10^7-10^8
[18] = tested on: Micrococcus flavus D-12; test: MIC, serial two-fold dilution method (aerobic); conditions: Micrococcus flavus D-12, Mueller-Hinton agar, inoculum 10^4
[19] = tested on: Fusobacterium necrophorum A20013; test: MIC, serial two-fold dilution method (anaerobic); conditions: Fusobacterium necrophorum A20013, GAM agar medium, inoculum 10^7-10^8
[20] = tested on: Staphylococcus aureus 209P; test: MIC, serial two-fold dilution method (aerobic); conditions: Staphylococcus aureus 209P, Mueller-Hinton agar, inoculum 10^4
[21] = tested on: Staphylococcus aureus A9601; test: MIC, serial two-fold dilution method (aerobic); conditions: Staphylococcus aureus A9601, Mueller-Hinton agar, inoculum 10^4
[22] = tested on: Propionibacterium acnes A21933; test: MIC, serial two-fold dilution method (anaerobic); conditions: Propionibacterium acnes A21933, GAM agar medium, inoculum 10^7-10^8
[23] = tested on: Staphylococcus aureus A20701; test: MIC, serial two-fold dilution method (aerobic); conditions: Staphylococcus aureus A20701, Mueller-Hinton agar, inoculum 10^4
[24] = tested on: Veillonella alcalescens A21914-1; test: MIC, serial two-fold dilution method (anaerobic); conditions: Veillonella alcalescens A21914-1, GAM agar medium, inoculum 10^7-10^8
[25] = tested on: Escherichia coli NIHJ; test: MIC, serial two-fold dilution method (aerobic); conditions: Escherichia coli NIHJ, Mueller-Hinton agar, inoculum 10^4
[26] = tested on: Staphylococcus aureus A20610; test: MIC, serial two-fold dilution method (aerobic); conditions: Staphylococcus aureus A20610, Mueller-Hinton agar, inoculum 10^4
[27] = read-out: minimum inhibitory concentration (MIC)
[28] = Clostridioides difficile, read-out: minimum inhibitory concentration (MIC)
[29] = Cutibacterium acnes, read-out: minimum inhibitory concentration (MIC)

CC1(C)S[C@@H]2[C@H](NC(=O)[C@H](N)c3ccccc3)C(=O)N2[C@H]1C(=O)O [Ampicillin]
MIC ([1]; Gottschalkia acidurici, read-out: minimum inhibitory concentration (MIC)): 0.8 µg/mL (≈ 2.29 µM)
MIC ([2]; A209281, read-out: minimum inhibitory concentration (MIC)): 0.2 µg/mL (≈ 0.572 µM)
MIC [3, 27]: 0.4 µg/mL (≈ 1.14 µM)
MIC [4, 28]: 1.6 µg/mL (≈ 4.58 µM)
MIC [5, 27]: 0.4 µg/mL (≈ 1.14 µM)
MIC [6, 27]: 0.8 µg/mL (≈ 2.29 µM)
MIC [7, 28]: 0.2 µg/mL (≈ 0.572 µM)
MIC [8, 27]: 0.2 µg/mL (≈ 0.572 µM)
MIC ([9]; ATCC8501, read-out: minimum inhibitory concentration (MIC)): 12.5 µg/mL (≈ 35.8 µM)
MIC [10, 27]: 3.1 µg/mL (≈ 8.87 µM)
MIC [11, 27]: > 100 µg/mL
MIC [12, 27]: 0.8 µg/mL (≈ 2.29 µM)
MIC ([13]; Clostridium perfringens, A22787, read-out: minimum inhibitory concentration (MIC)): 0.1 µg/mL (≈ 0.286 µM)
MIC [14, 29]: 0.05 µg/mL (≈ 0.143 µM)
MIC [15, 27]: 0.8 µg/mL (≈ 2.29 µM)
MIC [16, 27]: 0.8 µg/mL (≈ 2.29 µM)
MIC [17, 27]: 0.1 µg/mL (≈ 0.286 µM)
MIC ([18]; D12, read-out: minimum inhibitory concentration (MIC)): 0.1 µg/mL (≈ 0.286 µM)
MIC [19, 27]: > 100 µg/mL
MIC [20, 27]: 0.013 µg/mL (≈ 0.0372 µM)
MIC [21, 27]: 0.4 µg/mL (≈ 1.14 µM)
MIC [22, 29]: 0.2 µg/mL (≈ 0.572 µM)
MIC [23, 27]: 25 µg/mL (≈ 71.5 µM)
MIC ([24]; Veillonella parvula, A219141, read-out: minimum inhibitory concentration (MIC)): 0.025 µg/mL (≈ 0.0715 µM)
MIC [25, 27]: 0.4 µg/mL (≈ 1.14 µM)
MIC [26, 27]: 12.5 µg/mL (≈ 35.8 µM)

Amphomycin
minimum inhibitory concentration (MIC) [1]: 3.1 µg/mL
minimum inhibitory concentration (MIC) [2]: 25 µg/mL
minimum inhibitory concentration (MIC) [3]: 6.3 µg/mL
minimum inhibitory concentration (MIC) [4]: 3.1 µg/mL
minimum inhibitory concentration (MIC) [5]: 6.3 µg/mL
minimum inhibitory concentration (MIC) [6]: 6.3 µg/mL
minimum inhibitory concentration (MIC) [7]: 25 µg/mL
minimum inhibitory concentration (MIC) [8]: 50 µg/mL
minimum inhibitory concentration (MIC) [9]: 25 µg/mL
minimum inhibitory concentration (MIC) [10]: 3.1 µg/mL
minimum inhibitory concentration (MIC) [11]: > 100 µg/mL
minimum inhibitory concentration (MIC) [12]: 50 µg/mL
minimum inhibitory concentration (MIC) ([13]; Clostridium perfringens A22787, GAM agar medium, inoculum 10^7-10^8): 12.5 µg/mL
minimum inhibitory concentration (MIC) [14]: 6.3 µg/mL
minimum inhibitory concentration (MIC) [15]: 25 µg/mL
minimum inhibitory concentration (MIC) [16]: > 100 µg/mL
minimum inhibitory concentration (MIC) [17]: 6.3 µg/mL
minimum inhibitory concentration (MIC) [18]: 0.4 µg/mL
minimum inhibitory concentration (MIC) [19]: > 100 µg/mL
minimum inhibitory concentration (MIC) [20]: 3.1 µg/mL
minimum inhibitory concentration (MIC) [21]: 3.1 µg/mL
minimum inhibitory concentration (MIC) [22]: 3.1 µg/mL
minimum inhibitory concentration (MIC) [23]: 6.3 µg/mL
minimum inhibitory concentration (MIC) [24]: 25 µg/mL
minimum inhibitory concentration (MIC) [25]: > 100 µg/mL
minimum inhibitory concentration (MIC) [26]: 3.1 µg/mL
